This passage reports peak flow, FEV1/FVC ratio and dyspnea tolerance results from US6538035B2, “Use of tolterodine to treat asthma” (Pharmacia & Upjohn Company, priority 2000, dated 2003).

Assay [1] deals with asthma. The assay can be described thus: treatment of a patient with asthma by inhalation, morning peak flow. The assay is classed as in vivo, human. Particulars: person. On the procedure: A person with a history of asthma with a morning peak flow of less than 2 l/sec is treated with 2-(diisopropylamino)ethyl-1-phenylcyclopentanecarboxylate powder 0.1 mg every 8 hr continuously. Treatment improves the peak flow to 4-5 l/sec.
A person with a history of severe asthma with a morning peak flow of 5 l/sec is treated with tolterodine powder 6 mg once a day continuously. After a week of treatment the peak flow improves to 9 l/sec.
A person with a history of severe asthma with a morning peak flow of less than 3 l/sec is treated with tolterodine aerosol 2 mg three times daily continuously. After a week of treatment the peak flow improves to 6 l/sec.

Assay [2] concerns chronic COPD. Briefly: treatment of a patient with chronic COPD by inhalation. The class given is in vivo, human. The conditions noted are these: person. On the procedure:
A person with a history of chronic COPD with FEV1 of 1.5 liters is treated with tolterodine aerosol 1 mg every 12 hr continuously for dyspnea. After two weeks of therapy dyspnea tolerance is improved.
A person with a history of chronic COPD with FEV1/FVC of 60% liters is treated with hydroxytolterodine aerosol 2 mg every 8 hr continuously for dyspnea. After a week of treatment the FEV1/FVC ratio improves to about 65%.

The compound `CC(C)N(CCOC(=O)C1(c2ccccc2)CCCC1)C(C)C` [2-(diisopropylamino)ethyl-1-phenylcyclopentanecarboxylate] showed a peak flow in assay [1] (asthma, baseline morning peak flow less than 2 l/sec, powder 0.1 mg every 8 hr continuously) of 4 to 5 L/s. In the case of `CC(C)N(CC[C@H](c1ccccc1)c1cc(CO)ccc1O)C(C)C` [hydroxytolterodine, 2-[(1R)-3-(diisopropylamino)-1-phenylpropyl]-4-(hydroxymethyl)phenol], the FEV1/FVC ratio result in assay [2] (baseline FEV1/FVC of 60%, aerosol 2 mg every 8 hr continuously, after a week of treatment) is given as “about 65%”. Consider `Cc1ccc(O)c([C@H](CCN(C(C)C)C(C)C)c2ccccc2)c1` [tolterodine, 2-[(1R)-3-(diisopropylamino)-1-phenylpropyl]-4-methylphenol], for which the peak flow in assay [1] (severe asthma, baseline morning peak flow 5 l/sec, powder 6 mg once a day continuously, after a week) stood at 9 L/s; in assay [1] (severe asthma, baseline morning peak flow less than 3 l/sec, aerosol 2 mg three times daily continuously, after a week), 6 L/s. The dyspnea tolerance result in assay [2] (FEV1 of 1.5 liters, aerosol 1 mg every 12 hr continuously, after two weeks of therapy) was “improved”.
